Where two headings read alike, the source gives them in different places.
Assays:
nitrification [1] = assay: Soil incubation trial: nitrate formed from applied urea N; settings: for Nitrate, % of the urea applied (13 mg N): Filder loam, 20° C., label gives UI/NI fraction of recommended rate
Protocol: % of the urea applied (13 mg N)

nitrification [2] = assay: Soil incubation trial: recovery of applied urea N as ammonium; settings: for percentage recovery in the form of ammonium, % of applied urea (13 mg N): 28 days after application, Filder loam pH 6.8, 20° C., 200 kg urea N/ha, label gives UI/NI fraction of recommended rate (0.6 g NBPT, 3.6 g DMPSA per kg urea)
Protocol: % of applied urea (13 mg N)
A determination was carried out 28 days after application of the urea, with the percentage recovery in the form of ammonium being reported.

urease = settings: for Ammonia emission, % of the urea applied (77 mg N): Filder loam, 20° C., label gives UI/NI fraction of recommended rate
Protocol: Screening trials were conducted to evaluate the effect of DMPSA and NBPT in the inhibition of urease and inhibition of nitrification, and to find suitable quantities for use. Serving for this purpose was a two-factorial trial design including an unfertilized control sample. For the urease inhibitor NBPT and for the nitrification inhibitor DMPSA, in each case 0%, 33%, 66% and 100% of the application rates recommended for the individual compounds when used alone were used (in this example, 0.6 g of NBPT per kg of urea and, respectively, 3.6 g of DMPSA per kg of urea), giving 16 trials (0%-0% to 100%-100%), in addition to the unfertilized control sample.
Urea fertilizer was delivered in an amount of 200 kg nitrogen per ha, corresponding to 0.51 mg of urea nitrogen per g of soil. The soil used was Filder loam with a pH of 6.8. The incubation trials were carried out at 20° C. For the investigation of trace gases, air supply was passed first through a gas sample, then through a 250 ml capacity glass bottle containing 150 g of soil, subsequently through a gas sample for the outgoing air and through an acid trap, in order, for example, to determine amounts of ammonia. For the measurement of nitrogen, about 20 g of soil were incubated; for the measurement of urea, about 5 g of soil.

nitrification [3] = assay: Soil incubation trial: cumulative laughing gas (N2O-N) emission; settings: for N2O—N cumulative / N2O—N cumulative, % of appl.: 77 mg N applied; for N2O—N cumulative, % of appl.: cumulative over 28 days

For `Cc1cn(C(CC(=O)O)C(=O)O)nc1C` (stereo not drawn) [DMPSA, 2-(N-3,4-dimethylpyrazole)succinic acid], the “inhibition of nitrification (nitrate results)” value (nitrification [1]; 33% of the DMPSA, entire period) was “sufficient to inhibit nitrification during the entire period”, the “Nitrate, % of the urea applied (13 mg N)” value (nitrification [1]; 5 days after application, listed as UI 0 NI 1) was 6% and the “Nitrate, % of the urea applied (13 mg N)” value (nitrification [1]; 5 days after application, listed as UI 0 NI ⅓) was 4%. The “Nitrate, % of the urea applied (13 mg N)” value (nitrification [1]; 5 days after application, listed as UI 0 NI ⅔) was 5%, the “Nitrate, % of the urea applied (13 mg N)” value (nitrification [1]; 28 days after application, listed as UI 0 NI 1) was 14% and the “Nitrate, % of the urea applied (13 mg N)” value (nitrification [1]; 28 days after application, listed as UI 0 NI ⅓) was 20%. The “Nitrate, % of the urea applied (13 mg N)” value (nitrification [1]; 28 days after application, listed as UI 0 NI ⅔) was 17%, the “inhibition of nitrification (ammonium results)” value (nitrification [2]; 33% of DMPSA, throughout the trial) was “sufficient to inhibit nitrification throughout the trial” and the “percentage recovery in the form of ammonium, % of applied urea (13 mg N)” value (nitrification [2]; listed as UI 0 NI 1) was 69%. The “percentage recovery in the form of ammonium, % of applied urea (13 mg N)” value (nitrification [2]; listed as UI 0 NI ⅓) was 62%, the “percentage recovery in the form of ammonium, % of applied urea (13 mg N)” value (nitrification [2]; listed as UI 0 NI ⅔) was 63% and the “Ammonia emission, % of the urea applied (77 mg N)” value (“Ammonia emission, %” for short) (urease; 4 days after application, listed as UI 0 NI 1) was 0.7%. The “Ammonia emission, %” value (urease; 4 days after application, listed as UI 0 NI ⅓) was 0.6%, the “Ammonia emission, %” value (urease; 4 days after application, listed as UI 0 NI ⅔) was 0.9% and the “Ammonia emission, %” value (urease; 9 days after application, listed as UI 0 NI 1) was 2.2%. The “Ammonia emission, %” value (urease; 9 days after application, listed as UI 0 NI ⅓) was 3.7%, the “Ammonia emission, %” value (urease; 9 days after application, listed as UI 0 NI ⅔) was 2.4% and the “effect of addition on ammonia emissions” value (urease; addition of DMPSA) was “causes the ammonia emissions to rise”. For the same compound, the “N2O—N cumulative” value (nitrification [3]; 0 days after appl., 150 g soil) was 0 μg N2O—N Bottle^1, the “emissions of laughing gas” value (nitrification [3]; 33% of DMPSA) was “drastically reduces the emissions of laughing gas” and the “N2O—N cumulative” value (nitrification [3]; 0.5 days after appl.) was 0 μg N2O—N Bottle^1. For the same compound, the “N2O—N cumulative” value (nitrification [3]; 1 day after appl., listed as UI-0_NI-1) was 3 μg N2O—N Bottle^1, the “N2O—N cumulative” value (nitrification [3]; 1 day after appl., listed as UI-0_NI-2) was 1 μg N2O—N Bottle^1 and the “N2O—N cumulative” value (nitrification [3]; 1 day after appl., listed as UI-0_NI-3) was 1 μg N2O—N Bottle^1. The “N2O—N cumulative” value (nitrification [3]; 2 days after appl., listed as UI-0_NI-1) was 3 μg N2O—N Bottle^1, the “N2O—N cumulative” value (nitrification [3]; 2 days after appl., listed as UI-0_NI-2) was 1 μg N2O—N Bottle^1 and the “N2O—N cumulative” value (nitrification [3]; 2 days after appl., listed as UI-0_NI-3) was 1 μg N2O—N Bottle^1. The “N2O—N cumulative” value (nitrification [3]; 3 days after appl., listed as UI-0_NI-1) was 4 μg N2O—N Bottle^1, the “N2O—N cumulative” value (nitrification [3]; 3 days after appl., listed as UI-0_NI-2) was 2 μg N2O—N Bottle^1 and the “N2O—N cumulative” value (nitrification [3]; 3 days after appl., listed as UI-0_NI-3) was 1 μg N2O—N Bottle^1. For the same compound, the “N2O—N cumulative” value (nitrification [3]; 4 days after appl., listed as UI-0_NI-1) was 4 μg N2O—N Bottle^1, the “N2O—N cumulative” value (nitrification [3]; 4 days after appl., listed as UI-0_NI-2) was 2 μg N2O—N Bottle^1 and the “N2O—N cumulative” value (nitrification [3]; 4 days after appl., listed as UI-0_NI-3) was 2 μg N2O—N Bottle^1. For the same compound, the “N2O—N cumulative” value (nitrification [3]; 5 days after appl., listed as UI-0_NI-1) was 4 μg N2O—N Bottle^1, the “N2O—N cumulative” value (nitrification [3]; 5 days after appl., listed as UI-0_NI-2) was 2 μg N2O—N Bottle^1 and the “N2O—N cumulative” value (nitrification [3]; 5 days after appl., listed as UI-0_NI-3) was 2 μg N2O—N Bottle^1. The “N2O—N cumulative” value (nitrification [3]; 6 days after appl., listed as UI-0_NI-1) was 5 μg N2O—N Bottle^1, the “N2O—N cumulative” value (nitrification [3]; 6 days after appl., listed as UI-0_NI-2) was 2 μg N2O—N Bottle^1 and the “N2O—N cumulative” value (nitrification [3]; 6 days after appl., listed as UI-0_NI-3) was 2 μg N2O—N Bottle^1. For the same compound, the “N2O—N cumulative” value (nitrification [3]; 8 days after appl., listed as UI-0_NI-1) was 6 μg N2O—N Bottle^1, the “N2O—N cumulative” value (nitrification [3]; 8 days after appl., listed as UI-0_NI-2) was 3 μg N2O—N Bottle^1 and the “N2O—N cumulative” value (nitrification [3]; 8 days after appl., listed as UI-0_NI-3) was 3 μg N2O—N Bottle^1. The “N2O—N cumulative” value (nitrification [3]; 10 days after appl., listed as UI-0_NI-1) was 5 μg N2O—N Bottle^1, the “N2O—N cumulative” value (nitrification [3]; 10 days after appl., listed as UI-0_NI-2) was 3 μg N2O—N Bottle^1 and the “N2O—N cumulative” value (nitrification [3]; 10 days after appl., listed as UI-0_NI-3) was 2 μg N2O—N Bottle^1. The “N2O—N cumulative” value (nitrification [3]; 12 days after appl., listed as UI-0_NI-1) was 5 μg N2O—N Bottle^1, the “N2O—N cumulative” value (nitrification [3]; 12 days after appl., listed as UI-0_NI-2) was 3 μg N2O—N Bottle^1 and the “N2O—N cumulative” value (nitrification [3]; 12 days after appl., listed as UI-0_NI-3) was 3 μg N2O—N Bottle^1. For the same compound, the “N2O—N cumulative” value (nitrification [3]; 14 days after appl., listed as UI-0_NI-1) was 6 μg N2O—N Bottle^1, the “N2O—N cumulative” value (nitrification [3]; 14 days after appl., listed as UI-0_NI-2) was 3 μg N2O—N Bottle^1 and the “N2O—N cumulative” value (nitrification [3]; 14 days after appl., listed as UI-0_NI-3) was 3 μg N2O—N Bottle^1. The “N2O—N cumulative” value (nitrification [3]; 17 days after appl., listed as UI-0_NI-1) was 6 μg N2O—N Bottle^1, the “N2O—N cumulative” value (nitrification [3]; 17 days after appl., listed as UI-0_NI-2) was 3 μg N2O—N Bottle^1 and the “N2O—N cumulative” value (nitrification [3]; 17 days after appl., listed as UI-0_NI-3) was 3 μg N2O—N Bottle^1. For the same compound, the “N2O—N cumulative” value (nitrification [3]; 18 days after appl., listed as UI-0_NI-1) was 5 μg N2O—N Bottle^1, the “N2O—N cumulative” value (nitrification [3]; 18 days after appl., listed as UI-0_NI-2) was 1 μg N2O—N Bottle^1 and the “N2O—N cumulative” value (nitrification [3]; 18 days after appl., listed as UI-0_NI-3) was 2 μg N2O—N Bottle^1. For the same compound, the “N2O—N cumulative” value (nitrification [3]; 20 days after appl., listed as UI-0_NI-1) was 5 μg N2O—N Bottle^1, the “N2O—N cumulative” value (nitrification [3]; 20 days after appl., listed as UI-0_NI-2) was 2 μg N2O—N Bottle^1 and the “N2O—N cumulative” value (nitrification [3]; 20 days after appl., listed as UI-0_NI-3) was 2 μg N2O—N Bottle^1. The “N2O—N cumulative” value (nitrification [3]; 22 days after appl., listed as UI-0_NI-1) was 7 μg N2O—N Bottle^1, the “N2O—N cumulative” value (nitrification [3]; 22 days after appl., listed as UI-0_NI-2) was 3 μg N2O—N Bottle^1 and the “N2O—N cumulative” value (nitrification [3]; 22 days after appl., listed as UI-0_NI-3) was 2 μg N2O—N Bottle^1. The “N2O—N cumulative” value (nitrification [3]; 24 days after appl., listed as UI-0_NI-1) was 7 μg N2O—N Bottle^1, the “N2O—N cumulative” value (nitrification [3]; 24 days after appl., listed as UI-0_NI-2) was 4 μg N2O—N Bottle^1 and the “N2O—N cumulative” value (nitrification [3]; 24 days after appl., listed as UI-0_NI-3) was 3 μg N2O—N Bottle^1. For the same compound, the “N2O—N cumulative” value (nitrification [3]; 28 days after appl., listed as UI-0_NI-1) was 8 μg N2O—N Bottle^1, the “N2O—N cumulative” value (nitrification [3]; 28 days after appl., listed as UI-0_NI-2) was 6 μg N2O—N Bottle^1 and the “N2O—N cumulative” value (nitrification [3]; 28 days after appl., listed as UI-0_NI-3) was 4 μg N2O—N Bottle^1. The “N2O—N cumulative, % of appl.” value (nitrification [3]; listed as UI-0_NI-1) was 0.01 % of appl, the “N2O—N cumulative, % of appl.” value (nitrification [3]; listed as UI-0_NI-2) was 0.01 % of appl and the “N2O—N cumulative, % of appl.” value (nitrification [3]; listed as UI-0_NI-3) was 0.00 % of appl.
